According to patent publication US9790209B2, “Kinase inhibitors” (Respivert Limited, priority 2012, dated 2017):
Where two headings read alike, the source gives them in different places.

Tests used:
d-U937 cells = assay: LPS-induced TNFα/IL-8 release in d-U937 cells; type: cell-based; conditions: Homo sapiens, dU937, LPS-stimulated d-U937 cells
Protocol: U937 cells, a human monocytic cell line, are differentiated to macrophage-type cells by incubation with phorbol myristate acetate (PMA; 100 ng/mL) for 48 to 72 hr. Cells are pre-incubated with final concentrations of test compound for 2 hr and are then stimulated with 0.1 μg/mL of LPS (from E. Coli: 0111:B4, Sigma) for 4 hr. The supernatant is collected for determination of TNFα and IL-8 concentrations by sandwich ELISA (Duo-set, R&D systems). The inhibition of TNFα production is calculated as a percentage of that achieved by 10 μg/mL of BIRB796 at each concentration of test compound by comparison against vehicle control. The relative 50% effective concentration (REC50) is determined from the resultant concentration-response curve. The inhibition of IL-8 production is calculated at each concentration of test compound by comparison with vehicle control. The 50% inhibitory concentration (IC50) is determined from the resultant concentration-response curve.

[1] = test system: TNBS-induced colitis in mice; assay: TNBS-induced colitis in mice; type: in vivo; set-up: Ulcer grade / LP inflammation: scale not given here; conditions: for LP inflammation / Ulcer grade: 2 days; for Activity in in vivo model of colonic inflammation (histopathology analysis) / Inflammatory cell infiltrate in the reticular and lamina propria zones: assay (iv) conducted over 2 days; for Ulcer grade and epithelial repair compared to the vehicle control: dosed orally at 5 mg/kg (Example 2: at 1 and at 5 mg/kg)
Protocol: On Day 0 of the study TNBS (200 μL) is administered intra-colonically via a plastic catheter followed by BID dosing of the vehicle, reference or test compound for 2 or 4 days. During the study animals are weighed every day and stool observations are made and recorded as a score, based on stool consistency. At the time of sacrifice on Day 2 (or Day 4) the large intestine is removed and the length and weight recorded. Sections of the colon are taken for either MPO analysis to determine neutrophil infiltration or for histopathology involving scoring to determine disease severity.

[2] = IL-8, read-out: IC50 Values for Inhibition of Cytokine Release dU937 cells IL-8

Compound | IC50 (d-U937 cells; [2]) | IC50 (d-U937 cells; TNFα (method describes REC50 relative to BIRB796), read-out: IC50 Values for Inhibition of Cytokine Release dU937 cells TNFα) | LP inflammation ([1]; Experiment 1, 1 mg/kg oral BID, TNBS + Vehicle 3.9 ± 0.3) | Ulcer grade ([1]; Experiment 1, 1 mg/kg oral BID, TNBS + Vehicle 4.0 ± 0.5) | LP inflammation ([1]; Experiment 1, 5 mg/kg oral BID, TNBS + Vehicle 3.9 ± 0.3) | Ulcer grade ([1]; Experiment 1, 5 mg/kg oral BID, TNBS + Vehicle 4.0 ± 0.5) | Activity in in vivo model of colonic inflammation (histopathology analysis) [1] | Inflammatory cell infiltrate in the reticular and lamina propria zones [1] | Ulcer grade and epithelial repair compared to the vehicle control [1] | Ulcer grade ([1]; Experiment 2, 1 mg/kg oral BID, TNBS + Vehicle 4.4 ± 0.2) | LP inflammation ([1]; Experiment 2, 1 mg/kg oral BID, TNBS + Vehicle 4.5 ± 0.2) | Ulcer grade ([1]; Experiment 2, 5 mg/kg oral BID, TNBS + Vehicle 4.4 ± 0.2) | LP inflammation ([1]; Experiment 2, 5 mg/kg oral BID, TNBS + Vehicle 4.5 ± 0.2)
C#CC(C)(C)c1cc(NC(=O)Nc2ccc(Oc3ccnc(Nc4cc(C)c5[nH]ncc5c4)n3)c3ccccc23)n(-c2ccc(C)cc2)n1 [Example 2, 1-(4-((2-((7-Methyl-1H-indazol-5-yl)amino)pyrimidin-4-yl)oxy)naphthalen-1-yl)-3-(3-(2-methylbut-3-yn-2-yl)-1-(p-tolyl)-1H-pyrazol-5-yl)urea] | 900 pM | 400 pM | 2.7 ± 0.4 | 3.4 ± 0.6 | 1.7 ± 0.4 | 2.4 ± 0.6 | significant activity | marked reduction | marked improvements |  |  |  | 
C#CC(C)(C)c1cc(NC(=O)Nc2ccc(Oc3ccnc(Nc4cc(OC)cc(OCCOCCOCCOC)c4)n3)c3ccccc23)n(-c2ccc(C)cc2)n1 [Example 13, 1-(4-((2-((3-Methoxy-5-(2-(2-(2-methoxyethoxy)ethoxy)ethoxy)phenyl)amino)pyrimidin-4-yl)oxy)naphthalen-1-yl)-3-(3-(2-methylbut-3-yn-2-yl)-1-(p-tolyl)-1H-pyrazol-5-yl)urea] | 500 pM |  |  |  |  |  | significant activity | marked reduction | marked improvements | 3.0 ± 0.4 | 2.8 ± 0.3 | 2.9 ± 0.5 | 2.3 ± 0.3
